We go through 3 compounds from patent US20250269039A1, “THERAPEUTIC-OLIGONUCLEOTIDES ACTIVATED BY NUCLEASES” (priority 2020, published 2025).

In brackets after ≈: the same amount, converted by molar mass. Read-outs that look alike come from different tables or passages of the source.

The test system of data set [1] is Pancreatic cancer cells (ASPC-1). Description: Anti-cancer drug susceptibility testing, pancreatic cancer cells, 72 h. As to conditions: 72 h cultures; Gemcitabine alone, TOUCAN 7mGe spiked with MN; FIG. 13. It counts as cell-based. As to the method: (§1) Anti-cancer drug susceptibility testing for TOUCAN 7mGe. Gemcitabine and equivalent 7mGe solutions were prepared as explained before. Then, 7mGe was pre-exposed to 10 μl of 10 U MN for 1 hour at 37° C. (7mGe+MN). 100 μl of both drugs (Gemcitabine and 7mGe+MN) were added to the related wells and serially diluted using PBS+/+making the final concentrations between 100-2 μg/μl. Breast cancer cells (MDAMB231) and Pancreatic cancer cells (ASPC-1) were prepared as 10.000 cells/ml and 100 μl cell suspensions were added to each well. The plate was incubated at 37° C. for 72 hours. At 48th hour of incubation, 100 μl CyQUANT® Direct Cell Proliferation Assay kit was added to each well. Cell counts and images were taken at the end of 72 hours incubation period using Cytation 1 Cell Imaging Multi-Mode Reader.

Data set [2] concerns S. aureus NCTC 12493 (MRSA). As to the kind of experiment: Broth microdilution MIC and growth inhibition. Format: cell-based, Staphylococcus aureus. To be noted: for MIC: Staphylococcus aureus, read-out: MIC. From the text: (§2) Bacteria strains. S. aureus NCTC 12493 (MRSA), S. aureus ATCC 29213 (MSSA), S. aureus ATCC 43300 (MRSA), S. aureus ATCC 1707 (MRSA), S. aureus ATCC 1717 (MRSA), S. aureus ATCC 1747 (MRSA), S. aureus ATCC 1761 (MRSA), S. aureus ATCC 1766 (MRSA), S. aureus ATCC 1768 (MRSA), S. epidermidis ATCC 35984, E. coli ATCC 25922, K. pneumoniae ATCC 13883, P. mirabilis ATCC 25933, S. enterica ATCC 14028 and P. aeruginosa ATCC 10145 strains were used in this study. Bacteria were initially inoculated onto tryptone soy agar with 5% defibrinated sheep blood (Thermo Fisher Scientific, Inc., Waltham, MA, USA) and incubated at 37° C. for 24 hours. Then, single colonies of each strain were transferred to tryptone soy broth (Thermo Fisher Scientific) for the nuclease activity assay or antimicrobial susceptibility testing, respectively.
(§3) Antimicrobial susceptibility testing. Minimal inhibitory concentrations (MIC) of all nucleoside analogues and TOUCANs against each bacteria strain were determined using broth microdilution method. A single colony obtained from overnight culture on tryptone soy agar with 5% defibrinated sheep blood was inoculated in cation-adjusted Mueller Hinton Broth and adjusted to 10^6 CFU/mL. TOUCANs were prepared in PBS+/+ (treatment) and serial dilutions were made in 96-well polystyrene round bottom microwell plates with 50 μL final volume for each concentration. PBS+/+ was used as untreated control. Next, 50 μL bacteria solutions were added to each well to a final bacteria concentration of 5×10^5 CFU/mL. Plates were incubated at 37° C. in Cytation 1 Cell Imaging Multimode Reader. Growth curves were obtained by measuring optical densities at 600 nm every 10 minutes for 18 hours using Cytation 1 Cell Imaging Multimode Reader. In addition, visual inspection of the plates was carried out after 18 hours and photographs were taken. MICs were defined as the lowest drug concentration in the microwell at which bacterial growth was not visible at the end of the incubation period. Besides MIC determination, specificity of TOUCAN 7mGe was also shown with subcultures on chromogenic media. For this purpose, 5 μL of different concentrations of each strain were inoculated onto CHROM agar Orientation Media (Becton Dickinson) and the bacterial growth of each bacteria strain tested was observed by naked eye after incubation at 37° C. for 24 hours. Finally, photographs of the chromogenic media were taken.

Data set [3] deals with S. aureus ATCC 1768 (MRSA). As to the kind of experiment: Broth microdilution MIC and growth inhibition. Format: cell-based, Staphylococcus aureus. As to conditions: Staphylococcus aureus, 18 h, TOUCAN as NA equivalent, read-out: MIC.
Source text: as §2, §3
On the technique in general: Dilution methods test growth across graded concentrations, often in twofold steps.

Data set [4] concerns S. aureus ATCC 1766 (MRSA). Description: Broth microdilution MIC and growth inhibition. Format: cell-based, Staphylococcus aureus. To be noted: Staphylococcus aureus; S. aureus ATCC 1766 (MRSA); 18 h; TOUCAN as NA equivalent; read-out: MIC.
Source text: as §2, §3

Data set [5] deals with S. aureus ATCC 43300 (MRSA). As to the kind of experiment: Broth microdilution MIC and growth inhibition. Format: cell-based, Staphylococcus aureus. As to conditions: Staphylococcus aureus, 18 h, TOUCAN as NA equivalent, read-out: MIC.
Source text: as §2, §3

Data set [6] has as its system S. aureus ATCC 1761 (MRSA). As to the kind of experiment: Broth microdilution MIC and growth inhibition. Format: cell-based, Staphylococcus aureus. To be noted: Staphylococcus aureus, 18 h, TOUCAN as NA equivalent, read-out: MIC.
Source text: as §2, §3

For data set [7], the system named is S. aureus ATCC 1717 (MRSA). Description: Broth microdilution MIC and growth inhibition. Format: cell-based, Staphylococcus aureus. As to conditions: Staphylococcus aureus, 18 h, TOUCAN as NA equivalent, read-out: MIC.
Source text: as §2, §3

The test system of data set [8] is S. aureus ATCC 1707 (MRSA). As to the kind of experiment: Broth microdilution MIC and growth inhibition. It counts as cell-based, Staphylococcus aureus. To be noted: Staphylococcus aureus, 18 h, TOUCAN as NA equivalent, read-out: MIC.
Source text: as §2, §3

Data set [9] concerns S. aureus ATCC 29213 (MSSA). As to the kind of experiment: Broth microdilution MIC and growth inhibition. Format: cell-based, Staphylococcus aureus. As to conditions: for MIC: Staphylococcus aureus, read-out: MIC.
Source text: as §2, §3

Data set [10] concerns S. aureus ATCC 1747 (MRSA). As to the kind of experiment: Broth microdilution MIC and growth inhibition. It counts as cell-based, Staphylococcus aureus. As to conditions: Staphylococcus aureus, 18 h, TOUCAN as NA equivalent, read-out: MIC.
Source text: as §2, §3

For data set [11], the system named is S. epidermidis ATCC 35984. As to the kind of experiment: Broth microdilution MIC and growth inhibition (control bacteria). To be noted: Staphylococcus epidermidis, ATCC35984; S. epidermidis ATCC 35984; 18 h; TOUCAN as NA equivalent; read-out: MIC. It counts as cell-based, Staphylococcus epidermidis.
Source text: as §2, §3

The next data set relates to K. pneumoniae ATCC 13883. Described as above. Format: cell-based. To be noted: Klebsiella pneumoniae, ATCC13883, 18 h, TOUCAN as NA equivalent, read-out: MIC.
Source text: as §2, §3

Another data set deals with S. enterica ATCC 14028. The data set is described as above. It counts as cell-based. To be noted: Salmonella enterica, ATCC14028, 18 h, TOUCAN as NA equivalent, read-out: MIC.
Source text: as §2, §3

The subject of a further data set is P. aeruginosa ATCC 10145. The description is as above. Format: cell-based. To be noted: Pseudomonas aeruginosa, ATCC10145, 18 h, TOUCAN as NA equivalent, read-out: MIC.
Source text: as §2, §3

Data set [12] relates to Breast cancer cells (MDAMB231). Description: Anti-cancer drug susceptibility testing, breast cancer cells, 72 h. Format: cell-based. To be noted: 72 h of treatment; Gemcitabine alone, TOUCAN 7mGe spiked with MN; FIG. 14. As to the method: as §1
A further data set relates to P. mirabilis ATCC 25933. Description: Broth microdilution MIC and growth inhibition (control bacteria). It counts as cell-based, Proteus mirabilis. As to conditions: Proteus mirabilis, ATCC25933, 18 h, TOUCAN as NA equivalent, read-out: MIC.
Source text: as §2, §3

The subject of another data set is E. coli ATCC 25922. The description is as above. It counts as cell-based, Escherichia coli. As to conditions: Escherichia coli, ATCC25922, 18 h, TOUCAN as NA equivalent, read-out: MIC.
Source text: as §2, §3

The subject of a further data set is S. aureus. As to the kind of experiment: Growth inhibition curves / MICs in S. aureus cultures (strain not named or summary over strains). It counts as cell-based, Staphylococcus aureus. As to conditions: Staphylococcus aureus. As to the method: as §3
Another data set concerns S. aureus (MN+). As to the kind of experiment: Nuclease activity assay with culture supernatants. Format: biochemical, Staphylococcus aureus. As to the method: (§4) Nuclease activity assay. Nuclease activity of different S. aureus strains was evaluated using the TTprobe and TTprobe 2, along with the S. epidermidis as negative control and Micrococcal Nuclease (MN) as positive control. Single colonies of each bacteria strain isolated on tryptone soy agar were transferred to 50 mL tryptone soy broth and incubated at 37° C. for 24 hours with 200 rpm shaking. After the incubation period, 100 μL volumes of liquid cultures were transferred to a fresh 50 mL tryptone soy broth (1/500 dilution) and incubated under the same conditions for 12 hours. Next, cultures were centrifuged at 4500 g for 30 minutes and the supernatants were used for the nuclease activity assay. Briefly, 8 μL of supernatants were mixed with 1 μL PBS+/+ and 1 μL TT probe. The reactions were incubated at 37° C. for 1 hour. Then, 290 μL of 10 mM EDTA in PBS−/− solution were added to stop the reaction and the final solution was divided into triplicate wells (95 μL each), in a black flat-bottom polystyrene plates (Thermo Scientific F96). Fluorescence intensity was acquired at 485/20 excitation and 528/20 emission filter pair using Cytation 1 Cell Imaging Multimode Reader (Biotek Instruments Inc., USA).

Data set [13] has as its system Staphylococcus epidermidis (MN-). As to the kind of experiment: Nuclease activity assay with culture supernatants (negative control). It counts as biochemical. To be noted: S. epidermidis cultures; FIG. 3. As to the method: as §4
In data set [14] the test system is Breast cancer cells (MDAMB231). As to the kind of experiment: Anti-cancer drug susceptibility testing for TOUCAN 7mDx, breast cancer cells, 96 h. It counts as cell-based. As to conditions: FIG. 15. As to the method: Anti-cancer drug susceptibility testing for TOUCAN 7mDx. Doxorubicin and equivalent 7mDx solutions were prepared as explained before. Then, 7mDx was pre-exposed to 5 μl of 10 U MN for 1 hour at 37° C. (7mDx+MN). 100 μl of all drugs (Doxorubicin, 7mDx, and 7mDx+MN) were added to the related wells and serially diluted using PBS+/+making the final concentrations between 20-0.3 μg/μl. Breast cancer cells (MDAMB231) were prepared as 20.000 cells/ml and 100 μl cell suspensions were added to each well. The plate was incubated at 37° C. for 96 hours. At 48th hour of incubation, 100 μl CyQUANT® Direct Cell Proliferation Assay kit was added to each well. Cell counts and images were taken at the end of 96 hours incubation period using Cytation 1 Cell Imaging Multi-Mode Reader.

Take `Nc1ccn([C@@H]2O[C@H](CO)[C@@H](O)C2(F)F)c(=O)n1` [Gemcitabine, reference compound]: the “killing of pancreatic cancer cells (viability)” value in [1] was “efficient in killing”. In addition, the MIC (commonly the least concentration at which growth counts as inhibited) in data set [2] (S. aureus NCTC 12493 (MRSA), 18 h, TOUCAN as NA equivalent) is 4 ng/mL; in data set [2] (Table 1, S. aureus NCTC 12493) it was 4 ng/mL (≈ 0.0152 µM); in data set [3] it was 8 ng/mL; in data set [4] it was 8 ng/mL; in data set [5], 4 ng/mL; in data set [6] it was 16 ng/mL. Further, the minimum inhibitory concentration (MIC) is 8 ng/mL in data set [7]; 8 ng/mL in [8]; 4 ng/mL in data set [9] (S. aureus ATCC 29213 (MSSA), 18 h, TOUCAN as NA equivalent); 4 ng/mL (≈ 0.0152 µM) in [9] (Table 1, S. aureus ATCC 29213); 8 ng/mL in data set [10]; 2 ng/mL in data set [11]. Besides, the MIC in the data set with K. pneumoniae ATCC 13883 is above 40000 ng/mL; in the data set on S. enterica ATCC 14028, above 40000 ng/mL; with P. aeruginosa ATCC 10145, above 40000 ng/mL; in the data set with P. mirabilis ATCC 25933 it was above 40000 ng/mL; in the data set with E. coli ATCC 25922 it was above 40000 ng/mL; in the data set on S. aureus (read-out: MIC values over all S. aureus strains tested), 4 to 16 ng/mL (≈ 0.0152 to 0.0608 µM). Moreover, in the data set on S. aureus (S. aureus, strain not given, read-out: MIC), the minimal inhibitory concentration (MIC) worked out at 4 ng/mL (≈ 0.0152 µM). The “% Growth inhibition” value amounted to 93.7 ± 0.2% in data set [2] (Table 1, S. aureus NCTC 12493, mean ± SD, n = 3) and 94.2 ± 0.04% in [9] (Table 1, S. aureus ATCC 29213, mean ± SD, n = 3). For the same compound, the “therapeutic effect in breast cancer cells (viability)” value in [12] is “clear therapeutic effect”.
Consider “FAM-mU-mU-mU-mU-T-T-mU-mU-mU-mU-TQ2 [TTprobe2]”, for which the degradation by nucleases result in the data set with S. aureus (MN+) (S. aureus cultures, FIG. 3) is recorded as “efficient degradation”; in the data set with S. aureus (MN+) (all S. aureus strains used in the study, FIG. 4), “efficiently”. Also, in [13], the “stability in presence of control bacteria” value is “rendered stable”.
In the case of mU-mU-mU-mU-T-T-Dx [TOUCAN 7mDx], the “effect on viability of breast cancer cells” value in data set [14] (7mDx alone (no nuclease)) is reported as “did not show a significant effect on viability”. Moreover, the “therapeutic efficacy in breast cancer cells (viability)” value in data set [14] (7mDx spiked with MN) is recorded as “remarkable therapeutic efficacy”.
